Measurements reported in ChEMBL document CHEMBL1159092, “Polar 3-alkylidene-5-pivaloyloxymethyl-5'-hydroxymethyl-gamma-lactones as protein kinase C ligands and antitumor agents” (Bioorg Med Chem Lett, 2010).
Values after ≈ are worked out from the molar mass of the structure shown.

Experiments:
MOLT-4F = experiment: Antitumor activity against human MOLT4F cells; format: functional
[1] = Antitumor activity against human Hs 578T cells; format: functional
SK-MEL-5 = experiment: Antitumor activity against human SK-MEL-5 cells; format: functional
K562 = experiment: Antitumor activity against human K562 cells; format: functional
COLO 205 = experiment: Antitumor activity against human COLO205 cells; format: functional
CCRF-CEM = experiment: Antitumor activity against human CCRF-CEM cells; format: functional
[2] = target: Protein kinase C alpha type (Homo sapiens, UniProt P17252); experiment: Displacement of [20-3H]phorbol 12,13-dibutyrate from recombinant PKCalpha
HL-60 = experiment: Antitumor activity against human HL60 cells; format: functional
[3] = Antitumor activity against human NCI-H322 cells; format: functional

GI50 (MOLT-4F)	GI50 (SK-MEL-5)	GI50 (K562)	GI50 (COLO 205)	GI50 (CCRF-CEM)	Ki [2]	GI50 (HL-60)	Compound	GI50 [1]	GI50 [3]
7.91 mg/L (≈ 16.9 µM)	> 10 mg/L	7.3 mg/L (≈ 15.6 µM)	8.91 mg/L (≈ 19 µM)	5.71 mg/L (≈ 12.2 µM)	118 nM	> 10 mg/L	CCCCCCCCC(O)CCCCCC/C=C1\CC(CO)(COC(=O)C(C)(C)C)OC1=O (stereo not given)	> 10 mg/L	> 10 mg/L
					323 nM		COCCOCOCCCCCCC/C=C1\CC(CO)(COC(=O)C(C)(C)C)OC1=O (stereo not given)		
1.34 mg/L (≈ 3.26 µM)	5.81 mg/L (≈ 14.1 µM)	1.09 mg/L (≈ 2.64 µM)	2.49 mg/L (≈ 6.03 µM)	0.65 mg/L (≈ 1.58 µM)	14.5 nM	> 10 mg/L	CC(C)(C)C(=O)OCC1(CO)C/C(=C\CCCCCCCCCCCO)C(=O)O1 (stereo not given)	> 10 mg/L	> 10 mg/L
2.38 mg/L (≈ 5.59 µM)	2.81 mg/L (≈ 6.58 µM)	0.516 mg/L (≈ 1.21 µM)	0.541 mg/L (≈ 1.27 µM)	0.701 mg/L (≈ 1.64 µM)	8.2 nM	5.22 mg/L (≈ 12.2 µM)	COCCCCCCCCCCC/C=C1\CC(CO)(COC(=O)C(C)(C)C)OC1=O (stereo not given)	7.34 mg/L (≈ 17.2 µM)	> 10 mg/L
					8 nM		CC(C)(C)C(=O)OCC1(CO)C/C(=C\CCCCCCCCCCCCCCCOC=O)C(=O)O1 (stereo not given)		
					7.44 nM		CCCCCCCCCOCCC/C=C1\CC(CO)(COC(=O)C(C)(C)C)OC1=O (stereo not given)		
1.55 mg/L (≈ 3.03 µM)	5.62 mg/L (≈ 11 µM)	0.959 mg/L (≈ 1.88 µM)	2.1 mg/L (≈ 4.11 µM)	7.55 mg/L (≈ 14.8 µM)	9.3 nM	> 10 mg/L	CC(=O)OCCCCCCCCCCCCCCC/C=C1\CC(CO)(COC(=O)C(C)(C)C)OC1=O (stereo not given)	> 10 mg/L	> 10 mg/L
					39.3 nM		CC(C)(C)C(=O)OCC1(CO)C/C(=C\CCCCCCC=O)C(=O)O1 (stereo not given)		
0.498 mg/L (≈ 1.03 µM)	1.75 mg/L (≈ 3.63 µM)	0.189 mg/L (≈ 0.392 µM)	0.118 mg/L (≈ 0.244 µM)	4.26 mg/L (≈ 8.83 µM)	4.4 nM	4.65 mg/L (≈ 9.64 µM)	COCCCCCCCCCCCCCCC/C=C1\CC(CO)(COC(=O)C(C)(C)C)OC1=O (stereo not given)	5.45 mg/L (≈ 11.3 µM)	> 10 mg/L
					6.4 nM		CC(C)(C)C(=O)OCC1(CO)C/C(=C\CCCCCCCCCCCCCCCO)C(=O)O1 (stereo not given)		
					29.7 nM		CC(C)(C)C(=O)OCC1(CO)C/C(=C\CCCCCCCCCCCCCCC(=O)O)C(=O)O1 (stereo not given)		
0.277 mg/L	0.481 mg/L	0.375 mg/L	0.523 mg/L	0.181 mg/L		0.413 mg/L	COc1cccc2c1C(=O)c1c(O)c3c(c(O)c1C2=O)C[C@@](O)(C(=O)CO)C[C@@H]3O[C@H]1C[C@H](N)[C@H](O)[C@H](C)O1.Cl [DOXORUBICIN HYDROCHLORIDE]	0.596 mg/L	0.615 mg/L
> 10 mg/L	7.8 mg/L (≈ 15.7 µM)	0.856 mg/L (≈ 1.72 µM)	3.86 mg/L (≈ 7.77 µM)	0.691 mg/L (≈ 1.39 µM)	6.83 nM	> 10 mg/L	COC(=O)CCCCCCCCCCCCCC/C=C1\CC(CO)(COC(=O)C(C)(C)C)OC1=O (stereo not given)	> 10 mg/L	> 10 mg/L

Second part, the compound before the results:

Compound	GI50 (MOLT-4F)	GI50 (SK-MEL-5)	GI50 (K562)	GI50 (COLO 205)	GI50 (CCRF-CEM)	Ki [2]	GI50 (HL-60)	GI50 [1]	GI50 [3]
COCOCCCCCCC/C=C1\CC(CO)(COC(=O)C(C)(C)C)OC1=O (stereo not given)	1.84 mg/L (≈ 4.6 µM)	8.33 mg/L (≈ 20.8 µM)	3.69 mg/L (≈ 9.22 µM)	2.01 mg/L (≈ 5.01 µM)	> 10 mg/L	198 nM	> 10 mg/L	> 10 mg/L	> 10 mg/L
CC(=O)NCCCCCCCCCCCCCCC/C=C1\CC(CO)(COC(=O)C(C)(C)C)OC1=O (stereo not given)	6.35 mg/L (≈ 12.5 µM)	> 10 mg/L	3.38 mg/L (≈ 6.64 µM)	4.74 mg/L (≈ 9.29 µM)	1.08 mg/L (≈ 2.11 µM)	8.25 nM	> 10 mg/L	> 10 mg/L	> 10 mg/L
CCCCCCCCCCCCC/C=C1/CC(CO)(COC(=O)C(C)(C)C)OC1=O (stereo not given)						7.15 nM			
CC(C)(C)C(=O)OCC1(CO)C/C(=C/CCCCCCCCCCCCCCC=O)C(=O)O1 (stereo not given)	2.02 mg/L (≈ 4.33 µM)	> 10 mg/L	2.58 mg/L (≈ 5.53 µM)	5.14 mg/L (≈ 11 µM)	> 10 mg/L	11.4 nM	> 10 mg/L	> 10 mg/L	> 10 mg/L
CC(C)(C)C(=O)OCC1(CO)C/C(=C\CCCCCCCCCCC=O)C(=O)O1 (stereo not given)						30.3 nM			
COC(=O)CCCCCC/C=C1\CC(CO)(COC(=O)C(C)(C)C)OC1=O (stereo not given)						533 nM			
CCCCCCCCCCCCC/C=C1\CC(CO)(COC(=O)C(C)(C)C)OC1=O (stereo not given)	0.227 mg/L (≈ 0.535 µM)	0.779 mg/L (≈ 1.83 µM)	< 0.1 mg/L	0.253 mg/L (≈ 0.596 µM)	0.14 mg/L (≈ 0.33 µM)	7.83 nM	2.4 mg/L (≈ 5.65 µM)	2.27 mg/L (≈ 5.34 µM)	> 10 mg/L
CC(C)(C)C(=O)OCCCCCCCCCCCCCCC/C=C1\CC(CO)(COC(=O)C(C)(C)C)OC1=O (stereo not given)	0.605 mg/L (≈ 1.09 µM)	3.46 mg/L (≈ 6.25 µM)	0.352 mg/L (≈ 0.637 µM)	0.597 mg/L (≈ 1.08 µM)	> 10 mg/L	10.5 nM	7.78 mg/L (≈ 14.1 µM)	5.24 mg/L (≈ 9.48 µM)	> 10 mg/L
CC(C)(C)C(=O)OCC1(CO)C/C(=C\CCCCCCCO)C(=O)O1 (stereo not given)						378 nM			
CC(C)(C)C(=O)OCC1(CO)C/C(=C\CCCCCCCCCCCCCCCN)C(=O)O1 (stereo not given)	3.17 mg/L (≈ 6.77 µM)	5.1 mg/L (≈ 10.9 µM)	1.52 mg/L (≈ 3.25 µM)	1.53 mg/L (≈ 3.28 µM)	2.82 mg/L (≈ 6.03 µM)	36.4 nM	> 10 mg/L	> 10 mg/L	8.43 mg/L (≈ 18 µM)
CCCCCCCCCOCCCCCCC/C=C1\CC(CO)(COC(=O)C(C)(C)C)OC1=O (stereo not given)	2.14 mg/L (≈ 4.43 µM)	1.43 mg/L (≈ 2.96 µM)	0.156 mg/L (≈ 0.323 µM)	0.264 mg/L (≈ 0.547 µM)	0.304 mg/L (≈ 0.63 µM)	3.2 nM	4.53 mg/L (≈ 9.37 µM)	4.64 mg/L (≈ 9.61 µM)	> 10 mg/L
CC(C)CCOCCCCCCC/C=C1\CC(CO)(COC(=O)C(C)(C)C)OC1=O (stereo not given)						7.74 nM			
CCCCCOCCCCCCC/C=C1\CC(CO)(COC(=O)C(C)(C)C)OC1=O (stereo not given)	1.03 mg/L (≈ 2.41 µM)	2.99 mg/L (≈ 7.02 µM)	1.15 mg/L (≈ 2.69 µM)	0.491 mg/L (≈ 1.15 µM)	0.877 mg/L (≈ 2.06 µM)	8.1 nM	2.96 mg/L (≈ 6.94 µM)	3 mg/L (≈ 7.04 µM)	9.52 mg/L (≈ 22.3 µM)
CC(C)(C)C(=O)OCC1(CO)C/C(=C/CCCCCCCCCCCCCCCO)C(=O)O1 (stereo not given)	1.37 mg/L (≈ 2.93 µM)	5.34 mg/L (≈ 11.4 µM)	0.872 mg/L (≈ 1.86 µM)	2.34 mg/L (≈ 4.99 µM)	6.63 mg/L (≈ 14.1 µM)	8.24 nM	6.39 mg/L (≈ 13.6 µM)	> 10 mg/L	> 10 mg/L
COCCCCCCCCCCCCCCC/C=C1/CC(CO)(COC(=O)C(C)(C)C)OC1=O (stereo not given)	1.64 mg/L (≈ 3.4 µM)	2.13 mg/L (≈ 4.42 µM)	0.138 mg/L (≈ 0.286 µM)	0.178 mg/L (≈ 0.369 µM)	< 0.1 mg/L	5 nM	3.97 mg/L (≈ 8.22 µM)	6.77 mg/L (≈ 14 µM)	> 10 mg/L
COCCCCCCC/C=C1\CC(CO)(COC(=O)C(C)(C)C)OC1=O (stereo not given)						191 nM			
CC(C)(C)C(=O)OCC1(CO)C/C(=C\CCCCCCCCCCCCCCCN=[N+]=[N-])C(=O)O1 (stereo not given)						15.6 nM			
CC(C)(C)C(=O)OCC1(CO)C/C(=C\CCCCCCCOC2CCCC2)C(=O)O1 (stereo not given)						10.2 nM			
CC(C)(C)C(=O)OCC1(CO)C/C(=C\CCCCCCCCCCCCCCC=O)C(=O)O1 (stereo not given)	> 10 mg/L	> 10 mg/L	5.11 mg/L (≈ 10.9 µM)	> 10 mg/L	0.933 mg/L (≈ 2 µM)	6.38 nM	> 10 mg/L	> 10 mg/L	> 10 mg/L
